This note sets out measurements from US20210299198A1, “DIABETES-ALLEVIATING OR ANTIOXIDANT COMPOSITION COMPRISING YEAST EXTRACT AND METHOD FOR PREPARING YEAST EXTRACT” (COENBIO CO., LTD., priority 2018, published 2021).

Experiment [1] in a line: Radical cation de-colorization assay using ABTS. The format is biochemical. The method, then: 7 mM ABTS was mixed with 2.45 mM potassium persulfate and incubated at room temperature for 16 h to create ABTS cations (ABTS^+). […] The results are shown in Tables 5 and 6 (see FIGS. 4 and 8).
A short description of experiment [2]: Free radical scavenging assay using DPPH. It is filed as biochemical. The protocol:
An antioxidant scavenges DPPH radicals, losing its original color and being made transparent. The test sample was mixed with 2,2-diphenyl-1-picrylhydrazyl (DPPH, 100 μM) in a ratio of 1:20 and the mixture was stored at 37° C. for 30 min. After completion of the reaction, the absorbance was measured at 517 nm using a spectrophotometer. A lower absorbance indicates a higher antioxidant activity. […] The results are shown in Tables 3 and 4 (see FIGS. 3 and 7).
For orientation: Loss of DPPH colour is used to gauge radical scavenging.

The format of experiment [3] is biochemical. The method, then:
First, 50 μL of potassium ferricyanide and 20 μL of each sample were added to 50 μL of a 0.2 M phosphate buffer solution (pH 6.6) and the mixture was allowed to react at 50° C. for 20 min. After completion of the reaction, 50 μL of a 10% TCA solution was added, followed by centrifugation at 3000×g for 20 min. 100 μL of the supernatant, 200 μL of triple-distilled water, and 20 μL of 0.1% ferric chloride were added, and the absorbance was measured at 700 nm. Trolox and BHA were used as positive controls.

Read-outs that look alike come from different tables or passages of the source.

In the case of `O=C1O[C@H]([C@@H](O)CO)C(O)=C1O` [Ascorbic acid, ascorbic acid], the “ABTS scavenging activities (IC50) AVERAGE” value in experiment [1] (yeast extracts 1) and in experiment [1] (yeast extracts 2) was 260 µg/mL each time. Further, the “DPPH scavenging activities (IC50) AVERAGE” value in experiment [2] (yeast extracts 1) and in experiment [2] (yeast extracts 2) was 10 µg/mL throughout. Also, the “Reducing power activities (absorbance at 700 nm)” value in experiment [3] (yeast extract 2, 15.625 μg/mL) came to 0.058 ± 0.001; in experiment [3] (yeast extract 2, 62.5 μg/mL), 0.267 ± 0.002; in experiment [3] (yeast extract 2, 250 μg/mL) it was 0.940 ± 0.005; in experiment [3] (yeast extract 2, 1000 μg/mL), 1.146 ± 0.008; in experiment [3] (yeast extracts 1, 15.625 μg/mL), 0.058 ± 0.001; in experiment [3] (yeast extracts 1, 62.5 μg/mL) it was 0.267 ± 0.002. Besides, the “Reducing power activities (absorbance at 700 nm)” value is reported as 0.940 ± 0.005 in experiment [3] (yeast extracts 1, 250 μg/mL) and 1.146 ± 0.008 in experiment [3] (yeast extracts 1, 1000 μg/mL).
